Results reported in ChEMBL document CHEMBL5376002, “A Hybrid Antimicrobial Peptide Targeting Staphylococcus aureus with a Dual Function of Inhibiting Quorum Sensing Signaling and an Antibacterial Effect” (J Med Chem, 2023).
≈ marks a conversion by molar mass, not a printed value. Calls of active or inactive are those of the source. The calls are words filed in the database; no cut-off is given here. Numbered stars: 1 amine (or outer) side, 2 acyl side, 3 side chain; on linkers, the order of the positions; unused ones are H or OH. Bridge positions count the residues as written; N and C are the ends. Square brackets hold non-standard residues; d marks the D form. Peptide text beside a SMILES is read from it. I, II: the chains in the order shown. X1 = O=C1CC([*:2])C(=O)N1CCCCCC(=O)[*:1]; Dab = NCC[C@H](N)C(=O)O

Legend:
[1] = test system: Staphylococcus aureus; assay: Antibacterial activity against Staphylococcus aureus ATCC 6538p assessed as inhibition of bacterial growth incubated for 18 to 24 hrs; type: functional; conditions: time 18-24 hrs
[2] = test system: Staphylococcus aureus; assay: Bactericidal activity against Staphylococcus aureus ATCC 6538p assessed as inhibition of bacterial growth incubated for 18 to 24 hrs; type: functional; conditions: time 18-24 hrs
[3] = test system: Staphylococcus aureus; assay: Antibacterial activity against Staphylococcus aureus ATCC 12600 assessed as inhibition of bacterial growth incubated for 18 to 24 hrs; type: functional; conditions: time 18-24 hrs
[4] = test system: Staphylococcus aureus; assay: Bactericidal activity against Staphylococcus aureus ATCC 12600 assessed as inhibition of bacterial growth incubated for 18 to 24 hrs; type: functional; conditions: time 18-24 hrs
[5] = test system: Staphylococcus aureus; assay: Antibacterial activity against Staphylococcus aureus ATCC 43300 assessed as inhibition of bacterial growth incubated for 18 to 24 hrs; type: functional; conditions: time 18-24 hrs
[6] = test system: Staphylococcus aureus; assay: Bactericidal activity against Staphylococcus aureus ATCC 43300 assessed as inhibition of bacterial growth incubated for 18 to 24 hrs; type: functional; conditions: time 18-24 hrs
[7] = test system: Staphylococcus epidermidis; assay: Antibacterial activity against Staphylococcus epidermidis ATCC 12228 assessed as inhibition of bacterial growth incubated for 18 to 24 hrs; type: functional; conditions: time 18-24 hrs
[8] = test system: Staphylococcus epidermidis; assay: Bactericidal activity against Staphylococcus epidermidis ATCC 12228 assessed as inhibition of bacterial growth incubated for 18 to 24 hrs; type: functional; conditions: time 18-24 hrs
[9] = test system: Streptococcus pneumoniae; assay: Antibacterial activity against Streptococcus pneumoniae ATCC 49619 assessed as inhibition of bacterial growth incubated for 18 to 24 hrs; type: functional; conditions: time 18-24 hrs
[10] = test system: Streptococcus pneumoniae; assay: Bactericidal activity against Streptococcus pneumoniae ATCC 49619 assessed as inhibition of bacterial growth incubated for 18 to 24 hrs; type: functional; conditions: time 18-24 hrs
[11] = test system: Staphylococcus saprophyticus; assay: Antibacterial activity against Staphylococcus saprophyticus ATCC BAA-750 assessed as inhibition of bacterial growth incubated for 18 to 24 hrs; type: functional; conditions: time 18-24 hrs
[12] = test system: Staphylococcus saprophyticus; assay: Bactericidal activity against Staphylococcus saprophyticus ATCC BAA-750 assessed as inhibition of bacterial growth incubated for 18 to 24 hrs; type: functional; conditions: time 18-24 hrs
[13] = test system: Streptococcus mutans; assay: Antibacterial activity against Streptococcus mutans UA159 assessed as inhibition of bacterial growth incubated for 18 to 24 hrs; type: functional; conditions: time 18-24 hrs
[14] = test system: Streptococcus mutans; assay: Bactericidal activity against Streptococcus mutans UA159 assessed as inhibition of bacterial growth incubated for 18 to 24 hrs; type: functional; conditions: time 18-24 hrs
[15] = test system: Streptococcus mutans; assay: Antibacterial activity against Streptococcus mutans ATCC 25175 assessed as inhibition of bacterial growth incubated for 18 to 24 hrs; type: functional; conditions: time 18-24 hrs
[16] = test system: Streptococcus mutans; assay: Bactericidal activity against Streptococcus mutans ATCC 25175 assessed as inhibition of bacterial growth incubated for 18 to 24 hrs; type: functional; conditions: time 18-24 hrs
[17] = test system: Escherichia coli; assay: Antibacterial activity against Escherichia coli ATCC 25922 assessed as inhibition of bacterial growth incubated for 18 to 24 hrs; type: functional; conditions: time 18-24 hrs
[18] = test system: Escherichia coli; assay: Bactericidal activity against Escherichia coli ATCC 25922 assessed as inhibition of bacterial growth incubated for 18 to 24 hrs; type: functional; conditions: time 18-24 hrs
[19] = test system: RAW264.7; assay: Cytotoxicity against mouse RAW264.7 cells assessed as cell viability incubated for 48 hrs by MTT assay; type: functional
[20] = Binding affinity to AgrC-I extra-loop-I (unknown origin) assessed as dissociation constant incubated for 10 mins by isothermal titration calorimetry analysis
[21] = Binding affinity to AgrC-I extra-loop-II (unknown origin) assessed as dissociation constant incubated for 10 mins by isothermal titration calorimetry analysis
[22] = Binding affinity to AgrC-I extra-loop-III (unknown origin) assessed as dissociation constant incubated for 10 mins by isothermal titration calorimetry analysis
[23] = Binding affinity to AgrC-I extra-loop-I (unknown origin) assessed as change in enthalpy incubated for 10 mins by isothermal titration calorimetry analysis
[24] = Binding affinity to AgrC-I extra-loop-II (unknown origin) assessed as change in enthalpy incubated for 10 mins by isothermal titration calorimetry analysis
[25] = Binding affinity to AgrC-I extra-loop-III (unknown origin) assessed as change in enthalpy incubated for 10 mins by isothermal titration calorimetry analysis
[26] = organism: Homo sapiens; assay: Binding affinity to AgrC-I extra-loop-I (unknown origin) assessed as gibbs free energy change incubated for 10 mins by isothermal titration calorimetry analysis
[27] = organism: Homo sapiens; assay: Binding affinity to AgrC-I extra-loop-II (unknown origin) assessed as gibbs free energy change incubated for 10 mins by isothermal titration calorimetry analysis
[28] = organism: Homo sapiens; assay: Binding affinity to AgrC-I extra-loop-III (unknown origin) assessed as gibbs free energy change incubated for 10 mins by isothermal titration calorimetry analysis
[29] = organism: Homo sapiens; assay: Binding affinity to AgrC-I extra-loop-I (unknown origin) assessed as change in entropy incubated for 10 mins by isothermal titration calorimetry analysis
[30] = organism: Homo sapiens; assay: Binding affinity to AgrC-I extra-loop-II (unknown origin) assessed as change in entropy incubated for 10 mins by isothermal titration calorimetry analysis
[31] = organism: Homo sapiens; assay: Binding affinity to AgrC-I extra-loop-III (unknown origin) assessed as change in entropy incubated for 10 mins by isothermal titration calorimetry analysis
[32] = test system: Staphylococcus aureus; assay: Inhibition of biofilm formation in Staphylococcus aureus at 0.78 to 1.56 uM incubated for 24 hrs by crystal violet staining based analysis; type: functional, organism-based; conditions: dose 0.78-1.56 µM
[33] = test system: RAW264.7; assay: Cytotoxicity against mouse RAW264.7 cells assessed as cell viability upto 125 uM incubated for 48 hrs by MTT assay; type: functional, cell-based

CC[C@H](C)[C@H](NC(=O)CNC(=O)CCCCCN1C(=O)CC(SC[C@H](N)C(=O)NCC(=O)NCC(=O)N[C@H](C(=O)N[C@@H](CC(N)=O)C(=O)N[C@H]2CCNC(=O)[C@H](CC(C)C)NC(=O)[C@H](CC(C)C)NC(=O)[C@H](Cc3ccccc3)NC(=O)[C@H](C)NC2=O)[C@@H](C)CC)C1=O)C(=O)N[C@@H](CCCCN)C(=O)N[C@@H](CC(N)=O)C(=O)N[C@@H](C)C(=O)N[C@@H](Cc1c[nH]c2ccccc12)C(=O)N[C@@H](CCCCN)C(=O)N[C@@H](C)C(=O)N[C@@H](CCSC)C(=O)N[C@H](C(=O)N[C@@H](CCCCN)C(=O)N[C@@H](C)C(=O)N[C@@H](Cc1c[nH]c2ccccc12)C(=O)N[C@@H](Cc1ccc(O)cc1)C(=O)O)[C@@H](C)CC (stereo not given in full) (I: GIKNAWKAMIKAWY-OH / II: H-CGGIN[Dab]AFLL; linker I:N-II:1 via X1; lactam II:6-II:C)
MIC [1]: 6.25 µM (≈ 17.9 µg/mL) | MBC [2]: 6.25 µM (≈ 17.9 µg/mL) | MIC [3]: 6.25 µM (≈ 17.9 µg/mL) | MBC [4]: 6.25 µM (≈ 17.9 µg/mL) | MIC [5]: 6.25 µM (≈ 17.9 µg/mL) | MBC [6]: 12.5 µM (≈ 35.8 µg/mL) | MIC [7]: 3.13 µM (≈ 8.96 µg/mL) | MBC [8]: 6.13 µM (≈ 17.5 µg/mL) | MIC [9]: 12.5 µM (≈ 35.8 µg/mL) | MBC [10]: 12.5 µM (≈ 35.8 µg/mL) | MIC [11]: 6.25 µM (≈ 17.9 µg/mL) | MBC [12]: 12.5 µM (≈ 35.8 µg/mL) | MIC [13]: 6.25 µM (≈ 17.9 µg/mL) | MBC [14]: 12.5 µM (≈ 35.8 µg/mL) | MIC [15]: 3.13 µM (≈ 8.96 µg/mL) | MBC [16]: 3.13 µM (≈ 8.96 µg/mL) | MIC [17]: 6.25 µM (≈ 17.9 µg/mL) | MBC [18]: 6.25 µM (≈ 17.9 µg/mL) | CC50 [19]: 105 µM

CC[C@H](C)[C@H](N)C(=O)N[C@@H](CC(N)=O)C(=O)N[C@@H](CCN)C(=O)N[C@@H](C)C(=O)N[C@@H](Cc1ccccc1)C(=O)N[C@@H](CC(C)C)C(=O)N[C@@H](CC(C)C)C(=O)NCC(=O)NCC(=O)NCC(=O)N[C@H](C(=O)N[C@@H](CCCCN)C(=O)N[C@@H](CC(N)=O)C(=O)N[C@@H](CC(C)C)C(=O)N[C@@H](Cc1c[nH]c2ccccc12)C(=O)N[C@@H](CCCCN)C(=O)N[C@@H](CCCCN)C(=O)N[C@@H](CCSC)C(=O)N[C@H](C(=O)N[C@@H](CCCCN)C(=O)N[C@@H](CC(C)C)C(=O)N[C@@H](Cc1c[nH]c2ccccc12)C(=O)N[C@@H](Cc1ccc(O)cc1)C(=O)O)[C@@H](C)CC)[C@@H](C)CC (H-IN[Dab]AFLLGGGIKNLWKKMIKLWY-OH)
MIC [1]: 3.13 µM (≈ 8.47 µg/mL) | MBC [2]: 6.25 µM (≈ 16.9 µg/mL) | MIC [3]: 3.13 µM (≈ 8.47 µg/mL) | MBC [4]: 6.25 µM (≈ 16.9 µg/mL) | MIC [5]: 6.25 µM (≈ 16.9 µg/mL) | MBC [6]: 12.5 µM (≈ 33.8 µg/mL) | MIC [7]: 1.56 µM (≈ 4.22 µg/mL) | MBC [8]: 3.13 µM (≈ 8.47 µg/mL) | MIC [9]: 6.25 µM (≈ 16.9 µg/mL) | MBC [10]: 12.5 µM (≈ 33.8 µg/mL) | MIC [11]: 3.13 µM (≈ 8.47 µg/mL) | MBC [12]: 3.13 µM (≈ 8.47 µg/mL) | MIC [13]: 6.25 µM (≈ 16.9 µg/mL) | MBC [14]: 12.5 µM (≈ 33.8 µg/mL) | MIC [15]: 6.25 µM (≈ 16.9 µg/mL) | MBC [16]: 6.25 µM (≈ 16.9 µg/mL) | MIC [17]: 3.13 µM (≈ 8.47 µg/mL) | MBC [18]: 6.25 µM (≈ 16.9 µg/mL) | Kd [20]: 0.00205 µM | Kd [21]: 3780 µM | Kd [22]: 0.139 µM | deltaH [23]: 37.9 kJ/mol | deltaH [24]: -65.3 kJ/mol | deltaH [25]: -335 kJ/mol | deltaG [26]: -49.4 kJ/mol | deltaG [27]: -13.8 kJ/mol | deltaG [28]: -39.2 kJ/mol | -TdeltaS [29]: -87.4 kJ/mol | -TdeltaS [30]: 51.5 kJ/mol | -TdeltaS [31]: 295 kJ/mol | inhibition [32]: Active

H-IKNAWKAMIKAWY-OH
MIC [1]: 6.25 µM | MBC [2]: 6.25 µM | MIC [3]: 6.25 µM | MBC [4]: 6.25 µM | MIC [5]: 6.25 µM | MBC [6]: 12.5 µM | MIC [7]: 3.13 µM | MBC [8]: 3.13 µM | MIC [9]: 12.5 µM | MBC [10]: 12.5 µM | MIC [11]: 6.25 µM | MBC [12]: 12.5 µM | MIC [13]: 6.25 µM | MBC [14]: 25 µM | MIC [15]: 6.25 µM | MBC [16]: 12.5 µM | MIC [17]: 6.25 µM | MBC [18]: 6.25 µM | CC50 [19]: > 125 µM | Activity [33]: inactive
